This is an account of results in publication PMC8341145 (RSC Chemical Biology, 2021).

What all share (assay): CYP inhibition assay
Common to all, as to assay type: cell-based

One data set concerns CYP1A. To be noted: read-out: CYP1A.
A further data set has as its target CYP2C9 (Homo sapiens, UniProt P11712).
The target of a further data set is CYP2C19 (Homo sapiens, UniProt P33261).
A further data set concerns the target CYP3A4 (Homo sapiens, UniProt P08684).
The target of the next data set is CYP2D6 (Homo sapiens, UniProt P10635).
CYP2D6, sequence (P10635 whole entry): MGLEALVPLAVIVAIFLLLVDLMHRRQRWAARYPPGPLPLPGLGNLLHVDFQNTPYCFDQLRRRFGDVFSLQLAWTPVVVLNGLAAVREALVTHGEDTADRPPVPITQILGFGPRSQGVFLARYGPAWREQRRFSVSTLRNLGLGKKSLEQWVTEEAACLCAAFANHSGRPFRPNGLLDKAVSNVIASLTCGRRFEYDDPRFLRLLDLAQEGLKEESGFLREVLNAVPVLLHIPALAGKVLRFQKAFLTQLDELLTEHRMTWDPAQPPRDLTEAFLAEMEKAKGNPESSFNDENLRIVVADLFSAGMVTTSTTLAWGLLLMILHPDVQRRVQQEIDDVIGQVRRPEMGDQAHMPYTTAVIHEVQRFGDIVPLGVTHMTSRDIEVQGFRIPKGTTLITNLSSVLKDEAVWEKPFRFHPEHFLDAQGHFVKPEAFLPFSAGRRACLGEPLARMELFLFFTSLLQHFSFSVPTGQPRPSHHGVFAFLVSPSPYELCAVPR
In the next data set the target is T1, CYP2C8 (Homo sapiens, UniProt P10632).
T1 sequence (P10632 1-490): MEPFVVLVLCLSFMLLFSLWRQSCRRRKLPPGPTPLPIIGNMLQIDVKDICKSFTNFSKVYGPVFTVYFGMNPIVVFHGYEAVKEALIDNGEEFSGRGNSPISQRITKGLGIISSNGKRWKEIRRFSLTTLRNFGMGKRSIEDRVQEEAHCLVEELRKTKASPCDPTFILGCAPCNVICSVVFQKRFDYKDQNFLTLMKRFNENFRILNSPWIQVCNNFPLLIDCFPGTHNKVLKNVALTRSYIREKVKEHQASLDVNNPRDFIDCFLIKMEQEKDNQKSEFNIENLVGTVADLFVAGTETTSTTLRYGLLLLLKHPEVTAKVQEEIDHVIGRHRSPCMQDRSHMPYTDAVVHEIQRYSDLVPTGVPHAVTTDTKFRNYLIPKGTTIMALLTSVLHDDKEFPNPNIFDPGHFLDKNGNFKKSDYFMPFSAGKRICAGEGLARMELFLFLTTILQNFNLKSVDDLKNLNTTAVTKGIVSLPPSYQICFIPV

CYP2C9, sequence (P11712 whole entry): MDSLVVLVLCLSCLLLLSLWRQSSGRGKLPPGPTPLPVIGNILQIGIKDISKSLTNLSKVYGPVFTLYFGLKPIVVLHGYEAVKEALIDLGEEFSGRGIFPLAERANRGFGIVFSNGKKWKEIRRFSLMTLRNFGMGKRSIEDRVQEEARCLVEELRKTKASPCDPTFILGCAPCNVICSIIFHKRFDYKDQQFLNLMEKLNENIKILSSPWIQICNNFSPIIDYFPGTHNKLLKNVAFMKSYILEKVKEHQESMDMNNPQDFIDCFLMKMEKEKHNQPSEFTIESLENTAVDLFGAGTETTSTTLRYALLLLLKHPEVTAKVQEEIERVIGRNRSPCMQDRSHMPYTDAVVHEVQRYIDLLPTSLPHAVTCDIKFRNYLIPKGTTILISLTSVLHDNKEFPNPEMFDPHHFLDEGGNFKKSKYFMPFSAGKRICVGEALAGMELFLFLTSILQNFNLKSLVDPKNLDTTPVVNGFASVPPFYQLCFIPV
CYP2C19, sequence (P33261 whole entry): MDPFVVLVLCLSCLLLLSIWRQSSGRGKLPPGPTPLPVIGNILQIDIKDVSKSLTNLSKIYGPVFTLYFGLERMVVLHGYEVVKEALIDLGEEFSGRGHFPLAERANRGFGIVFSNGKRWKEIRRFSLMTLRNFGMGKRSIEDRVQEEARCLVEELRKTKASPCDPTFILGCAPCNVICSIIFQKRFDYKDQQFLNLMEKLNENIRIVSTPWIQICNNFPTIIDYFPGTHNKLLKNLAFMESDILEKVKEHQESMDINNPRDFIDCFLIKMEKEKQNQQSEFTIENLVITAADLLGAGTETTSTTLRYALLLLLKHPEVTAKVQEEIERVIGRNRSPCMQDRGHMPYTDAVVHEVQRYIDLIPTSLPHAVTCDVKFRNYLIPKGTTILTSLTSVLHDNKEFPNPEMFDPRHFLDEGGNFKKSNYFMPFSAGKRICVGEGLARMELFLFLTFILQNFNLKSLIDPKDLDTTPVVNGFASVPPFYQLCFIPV
CYP3A4, sequence (P08684 2-503): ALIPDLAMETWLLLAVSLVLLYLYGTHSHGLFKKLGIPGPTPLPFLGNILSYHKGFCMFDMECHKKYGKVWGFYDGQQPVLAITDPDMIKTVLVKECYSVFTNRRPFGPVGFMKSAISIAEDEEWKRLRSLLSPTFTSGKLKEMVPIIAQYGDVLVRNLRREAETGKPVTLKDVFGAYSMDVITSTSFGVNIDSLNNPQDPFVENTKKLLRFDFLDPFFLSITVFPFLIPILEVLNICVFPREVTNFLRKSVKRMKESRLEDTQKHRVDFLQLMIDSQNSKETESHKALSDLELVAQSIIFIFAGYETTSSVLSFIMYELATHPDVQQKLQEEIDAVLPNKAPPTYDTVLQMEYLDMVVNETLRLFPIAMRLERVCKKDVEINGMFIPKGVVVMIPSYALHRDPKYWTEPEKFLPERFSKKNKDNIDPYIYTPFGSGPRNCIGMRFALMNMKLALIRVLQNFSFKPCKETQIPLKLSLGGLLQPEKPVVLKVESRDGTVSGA

For the molecule `OC(Cn1cncn1)(Cn1cncn1)c1ccc(F)cc1F` [Fluconazole], the IC50 in the data set on CYP1A is over 100000 nM.

For the molecule `CN(C[c-]1cccc1)CC(O)(Cn1cncn1)c1ccc(F)cc1F.Cl.[Fe+2].c1cc[cH-]c1` (stereo not shown) [2a, N-(ferrocenylmethyl)-2-(2,4-difluorophenyl)-2-hydroxy-N-methyl-3-(1H-1,2,4-triazol-1-yl)propan-1-aminium chloride], the IC50 at CYP2C9 was 3330 ± 710 nM; on CYP2C19 it was under 400 nM; at CYP3A4, 400 ± 60 nM; against CYP2D6 it was 2710 ± 120 nM; against CYP2C8, 640 ± 90 nM; in the data set on CYP1A, 10400 ± 410 nM.
